Results on one compound are retold here after patent US6217879A, “Enzyme-decomposed materials of laver and uses thereof” (Shirako Co., Ltd., priority 1998, dated 2001).

This experiment in a line: Anti-oxidant action, linoleic acid peroxide number by rhodan iron method. The note with it: 3 mg α-tocopherol, 50° C. As for the experimental part: The respective fractions were measured for anti-oxidant activity in the following manner.
This solution was sealed in a test tube equipped with a screw and left in a thermostatic chamber at 50° C., and the peroxide number of the linoleic acid was measured every 48 hours by the rhodan iron method. […] The number of days elapsed until the absorbance at 500 nm reached 0.35 was assumed to be induction period (days).

Structures are written as SMILES.

Turning to `Cc1c(C)c2c(c(C)c1O)CCC(C)(CCCC(C)CCCC(C)CCCC(C)C)O2` (stereo not drawn) [α-tocopherol], the “Induction period (days until absorbance at 500 nm reached 0.35)” value turned out to be 8 days.
